From patent publication US20250304623A1, “PEPTIDES FOR INTRACELLULAR DELIVERY” (UNIVERSIDADE DE SANTIAGO DE COMPOSTELA, priority 2022, published 2025) come the findings set out here.

*: point of attachment. NHNH2 = NN*

Type in all cases: cell-based
In test [1] the test system is HepG2 cells expressing EGFP. Description: EGFP-targeting siRNA delivery (GFP silencing vs siMOCK), HepG2. The method, boiled down:
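After 72 h, a plate reader measured EGFP fluorescence in HepG2 EGFP cells transfected with amphiphile/siRNA complexes (30 nM siGFP). Silencing was expressed as percent fluorescence decrease relative to cells given non-targeting siMOCK, with untreated-cell background subtracted. Triplicate means were reported, and Lipofectamine RNAiMAX served as a comparison.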

Test [2] concerns Hela cells expressing EGFP. Briefly: Cas9-RNP delivery against EGFP (gene editing, plate reader), HeLa. The procedure, abridged: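 HeLa cells stably expressing EGFP were plated in 96-well plates at 50,000 cell/mL (100 μL/w) in DMEM+10% FBS+1% Gln-Abt one day ahead. Cas9-RNP targeting EGFP was premixed with amphiphile for 30 min at room temperature, applied for 4 h at 50 nM RNP, then medium was replaced; EGFP fluorescence was read on a plate reader after 72 h, in triplicate.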

Test [3] concerns HCT116 cells expressing EGFP. Description: Cas9-RNP delivery against EGFP (gene editing, plate reader), HCT116. The procedure, abridged: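 Gene editing was estimated as the percent drop in GFP fluorescence relative to untreated cells, after subtracting background from untreated controls; triplicate means were reported. EGFP-expressing HCT116 cells received RNP/amphiphile mixtures in DMEM for 4 h, then fresh DMEM with 10% FBS. Total fluorescence was measured 72 h later on a plate reader.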

With “Ac-RRLK*RLLRRLK*RLK*RRL-NH2 (Ac-RRLK(NHNH2)RLLRRLK(NHNH2)RLK(NHNH2)RRL-NH2; not fully specified; printed as Ac-RRLK*RLLRRLK*RLK*RRL-NH2; also: K*4,K*11,K*14: native or modified lysine (ε-amide to a linker)) [Peptide 17.3]”, the “percentage of GFP-silencing relative to siMOCK” value is 13% in test [1] (Dodecanal, 5 μM); 18% in test [1] (Dodecanal, 10 μM); −4% in test [1] (Dodecanal, 15 μM); −18% in test [1] (Myristoleyl, 15 μM); 8% in test [1] (Oleyl, 10 μM); 4% in test [1] (Palmitoleyl, 5 μM). The “percentage of GFP-silencing relative to siMOCK” value in test [1] (Palmitoleyl, 15 μM) is recorded as −2%; in test [1] (Petroselinyl, 5 μM), −11%; in test [1] (Petroselinyl, 10 μM), 5%. Moreover, the “percentage of gene editing, GFP fluorescence intensity decrease (% of reduction)” value in test [2] (Dodecanal, 5 μM, Hela cells) came out at 81%; in test [2] (Dodecanal, 10 μM, HeLa cells) it was 87%; in test [2] (Dodecanal, 15 μM, Hela cells) it was 78%; in test [2] (Myristoleyl, 5 μM, HeLa cells) it was 57%; in test [2] (Oleyl, 10 μM, HeLa cells), 90%; in test [2] (Oleyl, 15 μM, Hela cells), 82%. Further, the “percentage of gene editing, GFP fluorescence intensity decrease (% of reduction)” value in test [2] (Palmitoleyl, 5 μM, HeLa cells) is reported as 35%; in test [2] (Palmitoleyl, 10 μM, HeLa cells), 90%; in test [2] (Palmitoleyl, 15 μM, Hela cells), 88%; in test [2] (Petroselinyl, 5 μM, HeLa cells) it was 48%; in test [2] (Petroselinyl, 15 μM, Hela cells), 87%; in test [3] (Dodecanal, 5 μM), −2%. The “percentage of gene editing, GFP fluorescence intensity decrease (% of reduction)” value in test [3] (Dodecanal, 15 μM) was 22%; in test [3] (Myristoleyl, 15 μM), 26%; in test [3] (Petroselinyl, 5 μM), −4%.
